Tests used:
KAT-7 = KAT-7 (Homo sapiens (Human), UniProt O95251); assay: KAT-7 biochemical inhibition assay (SAMDI mass spectrometry)
How it was run: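 KAT-7 (6 nM) was pre-incubated with serially diluted compound (2% DMSO) in Tris pH 8.0 with DTT. Reaction with 1 μM peptide and 2 μM acetyl-CoA ran 120 min at 25 °C and was stopped with 0.5% formic acid. Acetylation was read by SAMDI-TOF mass spectrometry to give IC50.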

KAT-5 = KAT-5 (Homo sapiens (Human), UniProt Q92993); assay: KAT-5 biochemical inhibition assay (SAMDI mass spectrometry)
How it was run: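 KAT-5 at 9 nM final was preincubated with serially diluted compound (2% DMSO) in 50 mM Tris pH 8.0 with 1 mM DTT. Reaction ran with 1 μM peptide substrate and 0.5 μM acetyl-CoA for 90 min at 25° C, was quenched with 0.5% formic acid, and was read by SAMDI-TOF mass spectrometry.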

KAT-6A = KAT-6A (Homo sapiens (Human), UniProt Q92794); assay: KAT-6A biochemical inhibition assay (SAMDI mass spectrometry)
How it was run: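 Enzyme (12.5 nM final) pre-incubated with serially diluted compounds (2% DMSO final) in 50 mM Tris pH 8.0 with Tween20, gelatin and 1 mM DTT. Reaction started with 1 μM peptide substrate and 1 μM acetyl-CoA, run 90 min at 25 °C, quenched with 0.5% formic acid, read by SAMDI-TOF mass spectrometry; IC50 derived.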

KAT-8 = KAT-8 (Homo sapiens (Human), UniProt Q9H7Z6); assay: KAT-8 biochemical inhibition assay (SAMDI mass spectrometry)
How it was run: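 Compounds in 2% DMSO pre-incubated with 12.5 nM enzyme in 50 mM Tris pH 8.0 with Tween20, gelatin and 1 mM DTT. Then 1 μM peptide and 5 μM acetyl-CoA were added, 90 min at 25 °C; formic acid stop and SAMDI-TOF mass spectrometry for IC50.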

Chain of KAT-8 (Q9H7Z6 other isoform, or with tags, fused parts or gaps): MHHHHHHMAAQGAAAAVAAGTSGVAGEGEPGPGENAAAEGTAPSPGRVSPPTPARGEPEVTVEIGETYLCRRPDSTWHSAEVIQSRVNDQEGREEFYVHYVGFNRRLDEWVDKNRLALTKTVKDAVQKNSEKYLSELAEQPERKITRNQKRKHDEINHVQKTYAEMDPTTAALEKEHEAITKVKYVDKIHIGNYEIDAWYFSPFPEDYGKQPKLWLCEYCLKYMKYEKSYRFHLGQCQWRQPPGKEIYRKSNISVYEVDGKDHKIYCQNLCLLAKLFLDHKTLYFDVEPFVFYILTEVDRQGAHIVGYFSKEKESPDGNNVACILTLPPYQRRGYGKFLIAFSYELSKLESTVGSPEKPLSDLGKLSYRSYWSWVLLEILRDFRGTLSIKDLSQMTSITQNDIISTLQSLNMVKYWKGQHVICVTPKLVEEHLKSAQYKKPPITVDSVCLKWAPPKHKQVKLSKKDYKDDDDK
Chain of KAT-5 (Q92993 other isoform, or with tags, fused parts or gaps): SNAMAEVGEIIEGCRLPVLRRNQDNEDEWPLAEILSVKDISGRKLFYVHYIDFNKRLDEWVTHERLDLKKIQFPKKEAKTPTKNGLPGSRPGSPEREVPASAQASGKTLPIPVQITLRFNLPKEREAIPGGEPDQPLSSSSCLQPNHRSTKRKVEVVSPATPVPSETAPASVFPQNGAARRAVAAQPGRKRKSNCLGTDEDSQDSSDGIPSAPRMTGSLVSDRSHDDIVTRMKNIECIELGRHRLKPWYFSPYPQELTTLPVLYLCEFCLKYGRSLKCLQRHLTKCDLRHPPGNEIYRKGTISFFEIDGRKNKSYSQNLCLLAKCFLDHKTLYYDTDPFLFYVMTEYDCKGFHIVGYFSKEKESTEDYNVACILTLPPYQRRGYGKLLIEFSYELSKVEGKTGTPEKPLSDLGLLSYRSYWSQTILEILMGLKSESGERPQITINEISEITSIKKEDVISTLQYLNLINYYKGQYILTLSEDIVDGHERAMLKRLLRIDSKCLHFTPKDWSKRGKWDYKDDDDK
Chain of KAT-6A (Q92794 other isoform, or with tags, fused parts or gaps): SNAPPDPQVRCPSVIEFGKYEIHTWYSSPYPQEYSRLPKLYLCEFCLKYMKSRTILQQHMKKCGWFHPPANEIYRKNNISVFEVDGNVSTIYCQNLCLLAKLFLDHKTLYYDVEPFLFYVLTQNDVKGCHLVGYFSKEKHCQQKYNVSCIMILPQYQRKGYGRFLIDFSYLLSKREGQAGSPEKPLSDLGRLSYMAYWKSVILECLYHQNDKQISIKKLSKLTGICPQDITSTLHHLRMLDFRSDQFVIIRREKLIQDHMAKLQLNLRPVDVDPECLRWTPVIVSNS
Chain of KAT-7 (O95251 other isoform, or with tags, fused parts or gaps): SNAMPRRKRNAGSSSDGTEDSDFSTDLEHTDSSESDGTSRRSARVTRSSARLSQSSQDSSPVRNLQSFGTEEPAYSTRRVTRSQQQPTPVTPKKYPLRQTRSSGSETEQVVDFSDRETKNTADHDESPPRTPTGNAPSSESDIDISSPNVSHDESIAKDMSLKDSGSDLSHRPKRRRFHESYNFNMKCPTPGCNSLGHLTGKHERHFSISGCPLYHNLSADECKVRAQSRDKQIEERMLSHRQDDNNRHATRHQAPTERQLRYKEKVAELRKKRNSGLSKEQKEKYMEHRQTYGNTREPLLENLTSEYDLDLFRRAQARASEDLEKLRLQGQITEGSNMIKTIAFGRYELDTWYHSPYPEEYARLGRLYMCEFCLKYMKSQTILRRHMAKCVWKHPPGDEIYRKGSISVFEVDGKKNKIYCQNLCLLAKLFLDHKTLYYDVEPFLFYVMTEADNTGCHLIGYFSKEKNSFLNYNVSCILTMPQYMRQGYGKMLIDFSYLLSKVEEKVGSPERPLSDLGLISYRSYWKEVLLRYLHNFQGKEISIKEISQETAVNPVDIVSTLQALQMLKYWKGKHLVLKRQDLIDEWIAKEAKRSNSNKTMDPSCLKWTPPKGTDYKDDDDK

IC50 (KAT-7) [µM]	IC50 (KAT-5) [µM]	IC50 (KAT-6A) [µM]	IC50 (KAT-8) [µM]	Compound
50 to 100	50 to 100	10 to 50	> 100	Cn1c(Cl)nc(-c2cc(Cl)c(F)c(C(=O)NNS(=O)(=O)C3CCOCC3)c2)c1Cl [Compound I-11]
< 10	< 10	< 10	10 to 50	COCCN(Cc1ccc(OC)cc1)C(=O)N1CCC(CS(=O)(=O)NNC(=O)c2cc(-c3cn(C)cn3)cc(Cl)c2F)C1 (stereo not drawn) [Compound I-189]
10 to 50	10 to 50	10 to 50	10 to 50	O=C(NNS(=O)(=O)CC1CCOCC1)c1cc(-n2ccnn2)cc(Cl)c1F [Compound I-90]
< 10	< 10	< 10	10 to 50	CN(C(=O)C1CCC1)C1CCCC(CS(=O)(=O)NNC(=O)c2cc(-c3cn(C)cn3)cc(Cl)c2F)C1 (stereo not drawn) [Compound I-295]
< 10	< 10	10 to 50	50 to 100	Cn1cnc(-c2cc(Cl)c(F)c(C(=O)NNS(=O)(=O)CC3CCCCC3O)c2)c1 (stereo not drawn) [Compound I-384]
< 10	< 10	< 10	10 to 50	Cn1cnc(-c2cc(Cl)c(F)c(C(=O)NNS(=O)(=O)C[C@H]3CCC[C@H](O)C3)c2)c1 [Compound I-306]
< 10	10 to 50	10 to 50	10 to 50	Cn1cnc(-c2cc(Cl)c(F)c(C(=O)NNS(=O)(=O)c3cnnn3C)c2)c1 [Compound I-71]
< 10	< 10	< 10	10 to 50	Cn1cnc(-c2cc(Cl)c(F)c(C(=O)NNS(=O)(=O)C[C@H]3CCC[C@H](NC(=O)OC(C)(C)C)C3)c2)c1 [Compound I-350]
< 10	< 10	10 to 50	10 to 50	COCCN(Cc1ccc(OC)cc1)C(=O)N1CCCC(CS(=O)(=O)NNC(=O)c2cc(-c3cn(C)cn3)cc(Cl)c2F)C1 (stereo not drawn) [Compound I-216]
< 10	10 to 50	10 to 50	10 to 50	COCCC(=O)N1CCC(CS(=O)(=O)NNC(=O)c2cc(-c3cn(C)cn3)cc(Cl)c2F)C1 (stereo not drawn) [Compound I-56]
10 to 50	10 to 50	10 to 50	10 to 50	O=C(NNS(=O)(=O)CC1CCOCC1)c1cc(-n2cncn2)cc(Cl)c1F [Compound I-165]
< 10	< 10	< 10	10 to 50	Cn1cnc(-c2cc(Cl)c(F)c(C(=O)NNS(=O)(=O)C[C@H]3CC[C@H](N(C)C(=O)OC(C)(C)C)CC3)c2)c1 [Compound I-332]
< 10	< 10	< 10	10 to 50	COc1ccc(CN(C)C(=O)N2CC[C@@H](CS(=O)(=O)NNC(=O)c3cc(-c4cn(C)cn4)cc(Cl)c3F)C2)cc1 [Compound I-179]
< 10	< 10	< 10	> 100	O=C(NNS(=O)(=O)CC1CCCCC1)c1cc(-c2ccccn2)cc(Cl)c1F [Compound I-5]
< 10	< 10	< 10	10 to 50	Cn1cnc(-c2cc(Cl)c(F)c(C(=O)NNS(=O)(=O)c3cccc(F)c3)c2)c1 [Compound I-320]
< 10	< 10	< 10	50 to 100	Cn1cnc(-c2cc(Cl)c(F)c(C(=O)NNS(=O)(=O)CC3CCCN(S(C)(=O)=O)C3)c2)c1 (stereo not drawn) [Compound I-53]
< 10	< 10	10 to 50	10 to 50	CCNC(=O)N1CCC(C)C(CS(=O)(=O)NNC(=O)c2cc(-c3cn(C)cn3)cc(Cl)c2F)C1 (stereo not drawn) [Compound I-352]

IC50 (KAT-7) [µM]	IC50 (KAT-5) [µM]	IC50 (KAT-6A) [µM]	IC50 (KAT-8) [µM]	Compound
< 10	< 10	< 10	10 to 50	Cn1cnc(-c2cc(Cl)c(F)c(C(=O)NNS(=O)(=O)CC3CCCC(S(=O)(=O)C4CCC4)C3)c2)c1 (stereo not drawn) [Compound I-91]
< 10	< 10	< 10	10 to 50	CCNC(=O)N1CCCC(CS(=O)(=O)NNC(=O)c2cc(-c3cn(C)cn3)cc(Cl)c2F)C1 (stereo not drawn) [Compound I-105]
< 10	< 10	< 10	10 to 50	Cn1cnc(-c2cc(Cl)c(F)c(C(=O)NNS(=O)(=O)C[C@H]3CC[C@H](NC(=O)OC(C)(C)C)CC3)c2)c1 [Compound I-96]
< 10	< 10	< 10	10 to 50	Cn1cnc(-c2cc(Cl)c(F)c(C(=O)NNS(=O)(=O)c3ccc(Cl)cc3)c2)c1 [Compound I-323]
< 10	< 10	< 10	10 to 50	CC(=O)N[C@H]1C[C@@H](CS(=O)(=O)NNC(=O)c2cc(-c3cn(C)cn3)cc(Cl)c2F)C1 [Compound I-116]
< 10	10 to 50	10 to 50	10 to 50	Cn1cnc(-c2cc(Cl)c(F)c(C(=O)NNS(=O)(=O)C[C@H]3CCN(C(=O)OC(C)(C)C)C3)c2)c1 [Compound I-122]
< 10	< 10	< 10	10 to 50	CC1CCCC(CS(=O)(=O)NNC(=O)c2cc(-c3cn(C)cn3)cc(Cl)c2F)C1 (stereo not drawn) [Compound I-302]
< 10	< 10	< 10	50 to 100	Cn1cnc(-c2cc(Cl)c(F)c(C(=O)NNS(=O)(=O)CC3CCCC3)c2)c1 [Compound I-20]
< 10	< 10	< 10	10 to 50	CN(C)C(=O)N[C@H]1C[C@H](CS(=O)(=O)NNC(=O)c2cc(-c3cn(C)cn3)cc(Cl)c2F)C1 [Compound I-180]
< 10	< 10	< 10	10 to 50	CCNC(=O)NC1CCCC(CS(=O)(=O)NNC(=O)c2cc(-c3cn(C)cn3)cc(Cl)c2F)C1 (stereo not drawn) [Compound I-97]
< 10	10 to 50	10 to 50	10 to 50	Cn1cnc(-c2cc(Cl)c(F)c(C(=O)NNS(=O)(=O)CC3CN(C(N)=O)C3)c2)c1 [Compound I-208]
< 10	< 10	< 10	10 to 50	CC(C1CCCCC1)S(=O)(=O)NNC(=O)c1cc(-c2cn(C)cn2)cc(Cl)c1F (stereo not drawn) [Compound I-256]
< 10	< 10	< 10	> 100	CC(=O)N1CCCC(CS(=O)(=O)NNC(=O)c2cc(-c3cn(C)cn3)cc(Cl)c2F)C1 (stereo not drawn) [Compound I-10]
< 10	< 10	< 10	10 to 50	Cn1cnc(-c2cc(Cl)c(F)c(C(=O)NNS(=O)(=O)CC3CCCC(NC(=O)C4CCC4)C3)c2)c1 (stereo not drawn) [Compound I-218]
10 to 50	10 to 50	10 to 50	10 to 50	Cn1cnc(-c2cc(Cl)c(F)c(C(=O)NNC3CCS(=O)(=O)C3)c2)c1 (stereo not drawn) [Compound I-232]
50 to 100	10 to 50	< 10	> 100	Cc1ccn(-c2cc(Cl)c(F)c(C(=O)NNS(=O)(=O)CC3CCOCC3)c2)n1 [Compound I-43]

Reference: US11685732B2, “MYST family histone acetyltransferase inhibitors” (Epizyme, Inc., priority 2017, dated 2023)
